Measured values taken from patent publication US10987359B2, “Oxadiazepinone derivatives and methods of treating hepatitis B infections” (priority 2016, dated 2021).

Tested on: HBV
Test: HBV replication inhibition assay (BDNA assay) in HepG2.2.15 cells
Assay type: cell-based
Settings: HBV replication assay (BDNA assay), HepG2.2.15 cells; read-out: DNA EC50
Procedure: HBV replication inhibition by the disclosed compounds were determined in cells infected or transfected with HBV or cells with stably integrated HBV, such as HepG2.2.15 cells (Sells et al. 1987). In this example, HepG2.2.15 cells were maintained in cell culture medium containing 10% fetal bovine serum (FBS), Geneticin, L-glutamine, penicillin and streptomycin. HepG2.2.15 cells were seeded in 96-well plates at a density of 40,000 cells/well and were treated with serially diluted compounds at a final DMSO concentration of 0.5% either alone or in combination by adding drugs in a checker box format. Cells were incubated with compounds for three days, after which medium was removed and fresh medium containing compounds was added to cells and incubated for another three days. At day 6, supernatant was removed and treated with DNase at 37° C. for 60 minutes, followed by enzyme inactivation at 75° C. for 15 minutes. Encapsidated HBV DNA was released from the virions and covalently linked HBV polymerase by incubating in lysis buffer (Affymetrix QS0010) containing 2.5 μg proteinase K at 50° C. for 40 minutes. HBV DNA was denatured by addition of 0.2 M NaOH and detected using a branched DNA (BDNA) QuantiGene assay kit according to manufacturer recommendation (Affymetrix). HBV DNA levels were also quantified using qPCR, based on amplification of encapsidated HBV DNA extraction with QuickExtraction Solution (Epicentre Biotechnologies) and amplification of HBV DNA using HBV specific PCR probes that can hybridize to HBV DNA and a fluorescently labeled probe for quantitation. In addition, cell viability of HepG2.2.15 cells incubated with test compounds alone or in combination was determined by using CellTitre-Glo reagent according to the manufacturer protocol (Promega). The mean background signal from wells containing only culture medium was subtracted from all other samples, and percent inhibition at each compound concentration was calculated by normalizing to signals from HepG2.2.15 cells treated with 0.5% DMSO using equation E1. % inhibition=(DMSOave−Xi)/DMSOave×100% E1: […]
where DMSOave is the mean signal calculated from the wells that were treated with DMSO control (0% inhibition control) and Xi is the signal measured from the individual wells. EC50 values, effective concentrations that achieved 50% inhibitory effect, were determined by non-linear fitting using Graphpad Prism software (San Diego, Calif.) and equation E2: Y=Y min+(Y max−Y min)/(1+10(Log EC50−X)×HillSlope) E2: […]
where Y represents percent inhibition values and X represents the logarithm of compound concentrations.
Selected disclosed compounds were assayed in the HBV replication assay (BDNA assay), as described above, and a representative group of these active compounds is shown in Table 7. […] In Table 7, “A” represents 1<EC50≤100; “B” represents 100<EC50≤500; “C” represents 500<EC50≤1000; and “D” represents EC50>1000.

Row | Structure (SMILES) | EC50 [nM]
1 | C[C@@H]1Cc2nn3c(c2CN1C(=O)Nc1ccc(F)c(C(F)(F)F)c1)C(=O)N(C)OC(CNS(C)(=O)=O)C3 (single isomer, unassigned) [Compound 179_D2, (4R*,9R)—N-(4-fluoro-3-(trifluoromethyl)phenyl)-2,9-dimethyl-4-(methylsulfonamidomethyl)-1-oxo-1,4,5,8,9,11-hexahydropyrido[4′,3′:3,4]pyrazolo[5,1-d][1,2,5]oxadiazepine-10(2H)-carboxamide] | 1 to 100

Same assay, conditions: Hepatitis B virus, HepG2.2.15, HBV replication assay (BDNA assay), HepG2.2.15 cells; read-out: DNA EC50

Row | Structure (SMILES) | EC50 [nM]
2 | C[C@@H]1Cc2nn3c(c2CN1C(=O)Nc1ccc(F)c(Cl)c1)C(=O)N(C)OC(CN(C)C)C3 (stereo in doubt) [Compound 093_D2, (4R*,9R)—N-(3-chloro-4-fluorophenyl)-4-((dimethylamino)methyl)-2,9-dimethyl-1-oxo-1,4,5,8,9,11-hexahydropyrido[4′,3′:3,4]pyrazolo[5,1-d][1,2,5]oxadiazepine-10(2H)-carboxamide] | 1 to 100
3 | [2H]C([2H])([2H])N1OC(CO)Cn2nc3c(c2C1=O)CN(C(=O)Nc1ccc(F)c(Cl)c1)CC3 (centres unmarked) [Compound 107, N-(3-chloro-4-fluoro-phenyl)-4-(hydroxymethyl)-1-oxo-2-(trideuteriomethyl)-5,8,9,11-tetrahydro-4H-pyrido[2,3]pyrazolo[2,4-d][1,2,5]oxadiazepine-10-carboxamide] | 1 to 100
4 | C[C@@H]1Cc2nn3c(c2CN1C(=O)Nc1ccc(F)c(C#N)c1)C(=O)N(C)N(CCCO)CC3 [Compound 222, (R)—N-(3-Cyano-4-fluorophenyl)-3-(3-hydroxypropyl)-2,9-dimethyl-1-oxo-1,2,3,4,5,8,9,11-octahydro-10H-pyrido[4′,3′:3,4]pyrazolo[5,1-d][1,2,5]triazepine-10-carboxamide] | 100 to 500
5 | CC[C@H]1Cc2nn3c(c2CN1C(=O)Nc1ccc(F)c(Cl)c1)C(=O)N(C)O[C@@H](CO)C3 (stereo in doubt) [Compound 109_D4, (4R*,9S*)—N-(3-chloro-4-fluorophenyl)-9-ethyl-4-(hydroxymethyl)-2-methyl-1-oxo-1,4,5,8,9,11-hexahydropyrido[4′,3′:3,4]pyrazolo[5,1-d][1,2,5]oxadiazepine-10(2H)-carboxamide] | 100 to 500
6 | CN1OC(CO)Cn2nc3c(c2C1=O)CN(C(=O)Nc1ccc(F)c(Br)c1)CC3 (single isomer, unassigned) [Compound 032_E1, (S*)—N-(3-bromo-4-fluorophenyl)-4-(hydroxymethyl)-2-methyl-1-oxo-1,4,5,8,9,11-hexahydropyrido[4′,3′:3,4]pyrazolo[5,1-d][1,2,5]oxadiazepine-10(2H)-carboxamide] | 1 to 100
7 | Cc1cc(F)c(Br)cc1NC(=O)N1CCc2nn3c(c2C1)C(=O)N(C)OC(CO)C3 (centres unmarked) [Compound 018, N-(5-bromo-4-fluoro-2-methylphenyl)-4-(hydroxymethyl)-2-methyl-1-oxo-1,4,5,8,9,11-hexahydropyrido[4′,3′:3,4]pyrazolo[5,1-d][1,2,5]oxadiazepine-10(2H)-carboxamide] | 1 to 100
8 | Cc1ccc(NC(=O)N2CCc3nn4c(c3C2)C(=O)N(C)OC(CO)C4)cc1Cl (centres unmarked) [Compound 026, N-(3-chloro-4-methylphenyl)-4-(hydroxymethyl)-2-methyl-1-oxo-1,4,5,8,9,11-hexahydropyrido[4′,3′:3,4]pyrazolo[5,1-d][1,2,5]oxadiazepine-10(2H)-carboxamide] | 1 to 100
9 | CN1OC(CNS(=O)(=O)C(F)(F)F)Cn2nc3c(c2C1=O)CN(C(=O)Nc1ccc(F)c(Cl)c1)CC3 (centres unmarked) [Compound 164, N-(3-chloro-4-fluorophenyl)-2-methyl-1-oxo-4-(((trifluoromethyl)sulfonamido)methyl)-1,4,5,8,9,11-hexahydropyrido[4′,3′:3,4]pyrazolo[5,1-d][1,2,5]oxadiazepine-10(2H)-carboxamide] | 100 to 500
10 | CN1OC(CO)Cn2nc3c(c2C1=O)CN(C(=O)Nc1c(F)ccc(Cl)c1F)CC3 (single isomer, unassigned) [Compound 138_E1, (S*)—N-(3-chloro-2,6-difluorophenyl)-4-(hydroxymethyl)-2-methyl-1-oxo-1,4,5,8,9,11-hexahydropyrido[4′,3′:3,4]pyrazolo[5,1-d][1,2,5]oxadiazepine-10(2H)-carboxamide] | 100 to 500
11 | CN1O[C@@H](C[S@+](C)[O-])Cn2nc3c(c2C1=O)CN(C(=O)Nc1ccc(F)c(Cl)c1)CC3 (stereo in doubt) [Compound 049_E4, (R*)—N-(3-chloro-4-fluorophenyl)-2-methyl-4-(((S*)-methylsulfinyl)methyl)-1-oxo-1,4,5,8,9,11-hexahydropyrido[4′,3′:3,4]pyrazolo[5,1-d][1,2,5]oxadiazepine-10(2H)-carboxamide] | 100 to 500
12 | CN1OC(CNC(=O)C(C)(C)C)Cn2nc3c(c2C1=O)CN(C(=O)Nc1ccc(F)c(Cl)c1)CC3 (centres unmarked) [Compound 201, N-(3-chloro-4-fluorophenyl)-2-methyl-1-oxo-4-(pivalamidomethyl)-1,4,5,8,9,11-hexahydropyrido[4′,3′:3,4]pyrazolo[5,1-d][1,2,5]oxadiazepine-10(2H)-carboxamide] | 1 to 100
13 | Cc1cc(NC(=O)N2Cc3c(nn4c3C(=O)N(C)OC(CNCC(F)F)C4)C[C@H]2C)ccc1F (stereo in doubt) [Compound 185_D1, (4S*,9R)-4-(((2,2-difluoroethyl)amino)methyl)-N-(4-fluoro-3-methylphenyl)-2,9-dimethyl-1-oxo-1,4,5,8,9,11-hexahydropyrido[4′,3′:3,4]pyrazolo[5,1-d][1,2,5]oxadiazepine-10(2H)-carboxamide] | 1 to 100
14 | COC(=O)NCC1Cn2nc3c(c2C(=O)N(C)O1)CN(C(=O)Nc1ccc(F)c(C(F)(F)F)c1)[C@H](C)C3 (single isomer, unassigned) [Compound 181_D1, methyl(((4S*,9R)-10-((4-fluoro-3-(trifluoromethyl)phenyl)carbamoyl)-2,9-dimethyl-1-oxo-1,2,4,5,8,9,10,11-octahydropyrido[4′,3′:3,4]pyrazolo[5,1-d][1,2,5]oxadiazepin-4-yl)methyl)carbamate] | 1 to 100
15 | CN1OC(CO)Cn2nc3c(c2C1=O)CN(C(=O)Nc1cc(C(F)(F)F)ccc1F)CC3 (single isomer, unassigned) [Compound 148_E1, (S*)—N-(2-fluoro-5-(trifluoromethyl)phenyl)-4-(hydroxymethyl)-2-methyl-1-oxo-1,4,5,8,9,11-hexahydropyrido[4′,3′:3,4]pyrazolo[5,1-d][1,2,5]oxadiazepine-10(2H)-carboxamide] | 100 to 500
16 | C[C@@H]1Cc2nn3c(c2CN1C(=O)Nc1ccc(F)c(C#N)c1)C(=O)N(C)OC(COCC(F)F)C3 (stereo in doubt) [Compound 124_D1, (4S*,9R)—N-(3-cyano-4-fluorophenyl)-4-((2,2-difluoroethoxy)methyl)-2,9-dimethyl-1-oxo-1,4,5,8,9,11-hexahydropyrido[4′,3′:3,4]pyrazolo[5,1-d][1,2,5]oxadiazepine-10(2H)-carboxamide] | 1 to 100
17 | CN1OC(CO)Cn2nc3c(c2C1=O)CN(C(=O)Nc1cccc(Br)c1F)CC3 (centres unmarked) [Compound 004, N-(3-bromo-2-fluorophenyl)-4-(hydroxymethyl)-2-methyl-1-oxo-1,4,5,8,9,11-hexahydropyrido[4′,3′:3,4]pyrazolo[5,1-d][1,2,5]oxadiazepine-10(2H)-carboxamide] | 1 to 100
18 | COCC1Cn2nc3c(c2C(=O)N(C)O1)CN(C(=O)Nc1ccc(F)c(Cl)c1)CC3 (centres unmarked) [Compound 065, N-(3-chloro-4-fluoro-phenyl)-4-(methoxymethyl)-2-methyl-1-oxo-5,8,9,11-tetrahydro-4H-pyrido[2,3]pyrazolo[2,4-d][1,2,5]oxadiazepine-10-carboxamide] | 1 to 100
19 | COC(=O)C1Cn2nc3c(c2C(=O)N(C)O1)CN(C(=O)Nc1ccc(F)c(Cl)c1)CC3 (centres unmarked) [Compound 071, methyl 10-[(3-chloro-4-fluoro-phenyl)carbamoyl]-2-methyl-1-oxo-5,8,9,11-tetrahydro-4H-pyrido[2,3]pyrazolo[2,4-d][1,2,5]oxadiazepine-4-carboxylate] | > 1000
20 | C[C@@H]1Cc2nn3c(c2CN1C(=O)Nc1cc(Cl)c(F)cc1F)C(=O)N(C)OC(CO)C3 (stereo in doubt) [Compound 090_E1, (4S*,9R)—N-(5-chloro-2,4-difluorophenyl)-4-(hydroxymethyl)-2,9-dimethyl-1-oxo-1,4,5,8,9,11-hexahydropyrido[4′,3′:3,4]pyrazolo[5,1-d][1,2,5]oxadiazepine-10(2H)-carboxamide] | 1 to 100
